{"source": "patent US20200231614A1", "about": "“PSMA TARGETED RADIOHALOGENATED UREAS FOR CANCER RADIOTHERAPY” (THE JOHNS HOPKINS UNIVERSITY, priority 2015, published 2020)", "system": "PSMA + PC-3 PiP and PSMA − PC-3 flu tumor xenografts", "conditions": "for Biodistribution: PC-3 PiP: PSMA+ tumor xenograft; for Biodistribution: PC-3 flu: PSMA− tumor xenograft", "note": "Like-named read-outs stand apart in the source and are kept apart here.", "data": [{"smiles": "O=C(O)CC[C@H](NC(=O)N[C@@H](CCCCNC(=O)c1ccc([131I])cc1)C(=O)O)C(=O)O", "note": "[[^131I]YC-I-27]", "values": [{"measurement": "Biodistribution: Sm int.", "setting": "1 H post-injection", "result": "1.83 ± 0.41", "unit": "% ID/g"}, {"measurement": "Biodistribution: bladder", "setting": "1 H post-injection", "result": "2.99 ± 0.42", "unit": "% ID/g"}, {"measurement": "Biodistribution: blood", "setting": "1 H post-injection", "result": "1.57 ± 0.69", "unit": "% ID/g"}, {"measurement": "Biodistribution: heart", "setting": "1 H post-injection", "result": "1.88 ± 0.66", "unit": "% ID/g"}, {"measurement": "Biodistribution: liver", "setting": "1 H post-injection", "result": "7.37 ± 1.29", "unit": "% ID/g"}, {"measurement": "Biodistribution: lung", "setting": "1 H post-injection", "result": "4.67 ± 0.63", "unit": "% ID/g"}, {"measurement": "Biodistribution: muscle", "setting": "1 H post-injection", "result": "0.73 ± 0.22", "unit": "% ID/g"}, {"measurement": "Biodistribution: spleen", "setting": "1 H post-injection", "result": "21.2 ± 3.62", "unit": "% ID/g"}, {"measurement": "Biodistribution: stomach", "setting": "1 H post-injection", "result": "0.92 ± 0.16", "unit": "% ID/g"}, {"measurement": "Biodistribution: thyroid", "setting": "1 H post-injection", "result": "0.45 ± 0.14", "unit": "% ID/g"}, {"measurement": "Biodistribution: Sm int.", "setting": "2 H post-injection", "result": "1.92 ± 0.55", "unit": "% ID/g"}, {"measurement": "Biodistribution: bladder", "setting": "2 H post-injection", "result": "2.96 ± 1.12", "unit": "% ID/g"}, {"measurement": "Biodistribution: blood", "setting": "2 H post-injection", "result": "0.86 ± 0.20", "unit": "% ID/g"}, {"measurement": "Biodistribution: heart", "setting": "2 H post-injection", "result": "1.31 ± 0.58", "unit": "% ID/g"}, {"measurement": "Biodistribution: liver", "setting": "2 H post-injection", "result": "5.69 ± 1.49", "unit": "% ID/g"}, {"measurement": "Biodistribution: lung", "setting": "2 H post-injection", "result": "4.92 ± 1.95", "unit": "% ID/g"}, {"measurement": "Biodistribution: muscle", "setting": "2 H post-injection", "result": "0.62 ± 0.19", "unit": "% ID/g"}, {"measurement": "Biodistribution: spleen", "setting": "2 H post-injection", "result": "26.25 ± 15.11", "unit": "% ID/g"}, {"measurement": "Biodistribution: stomach", "setting": "2 H post-injection", "result": "0.71 ± 0.46", "unit": "% ID/g"}, {"measurement": "Biodistribution: thyroid", "setting": "2 H post-injection", "result": "0.24 ± 0.18", "unit": "% ID/g"}, {"measurement": "Biodistribution: Sm int.", "setting": "4 H post-injection", "result": "1.37 ± 0.51", "unit": "% ID/g"}, {"measurement": "Biodistribution: bladder", "setting": "4 H post-injection", "result": "1.37 ± 0.48", "unit": "% ID/g"}, {"measurement": "Biodistribution: blood", "setting": "4 H post-injection", "result": "0.59 ± 0.27", "unit": "% ID/g"}, {"measurement": "Biodistribution: heart", "setting": "4 H post-injection", "result": "0.87 ± 0.24", "unit": "% ID/g"}, {"measurement": "Biodistribution: liver", "setting": "4 H post-injection", "result": "3.21 ± 1.14", "unit": "% ID/g"}, {"measurement": "Biodistribution: lung", "setting": "4 H post-injection", "result": "2.72 ± 1.01", "unit": "% ID/g"}, {"measurement": "Biodistribution: muscle", "setting": "4 H post-injection", "result": "0.43 ± 0.30", "unit": "% ID/g"}, {"measurement": "Biodistribution: spleen", "setting": "4 H post-injection", "result": "18.2 ± 6.19", "unit": "% ID/g"}, {"measurement": "Biodistribution: stomach", "setting": "4 H post-injection", "result": "0.69 ± 0.23", "unit": "% ID/g"}, {"measurement": "Biodistribution: thyroid", "setting": "4 H post-injection", "result": "0.10 ± 0.22", "unit": "% ID/g"}, {"measurement": "Biodistribution: Sm int.", "setting": "21 H post-injection", "result": "0.33 ± 0.12", "unit": "% ID/g"}, {"measurement": "Biodistribution: bladder", "setting": "21 H post-injection", "result": "0.48 ± 0.09", "unit": "% ID/g"}, {"measurement": "Biodistribution: blood", "setting": "21 H post-injection", "result": "0.16 ± 0.06", "unit": "% ID/g"}, {"measurement": "Biodistribution: heart", "setting": "21 H post-injection", "result": "0.46 ± 0.22", "unit": "% ID/g"}, {"measurement": "Biodistribution: liver", "setting": "21 H post-injection", "result": "0.56 ± 0.09", "unit": "% ID/g"}, {"measurement": "Biodistribution: lung", "setting": "21 H post-injection", "result": "1.63 ± 0.47", "unit": "% ID/g"}, {"measurement": "Biodistribution: muscle", "setting": "21 H post-injection", "result": "0.14 ± 0.03", "unit": "% ID/g"}, {"measurement": "Biodistribution: spleen", "setting": "21 H post-injection", "result": "5.25 ± 1.51", "unit": "% ID/g"}, {"measurement": "Biodistribution: stomach", "setting": "21 H post-injection", "result": "0.40 ± 0.07", "unit": "% ID/g"}, {"measurement": "Biodistribution: thyroid", "setting": "21 H post-injection", "result": "0.13 ± 0.11", "unit": "% ID/g"}, {"measurement": "Biodistribution: PC-3 PiP", "setting": "1 H post-injection", "result": "13.1 ± 5.55", "unit": "% ID/g"}, {"measurement": "Biodistribution: PC-3 PiP", "setting": "2 H post-injection", "result": "15.5 ± 4.19", "unit": "% ID/g"}, {"measurement": "Biodistribution: PC-3 PiP", "setting": "4 H post-injection", "result": "16.3 ± 3.80", "unit": "% ID/g"}, {"measurement": "Biodistribution: PC-3 PiP", "setting": "21 H post-injection", "result": "25.6 ± 10.2", "unit": "% ID/g"}, {"measurement": "Biodistribution: PC-3 flu", "setting": "1 H post-injection", "result": "0.62 ± 0.11", "unit": "% ID/g"}, {"measurement": "Biodistribution: PC-3 flu", "setting": "2 H post-injection", "result": "0.40 ± 0.11", "unit": "% ID/g"}, {"measurement": "Biodistribution: PC-3 flu", "setting": "4 H post-injection", "result": "0.22 ± 0.07", "unit": "% ID/g"}, {"measurement": "Biodistribution: PC-3 flu", "setting": "21 H post-injection", "result": "0.06 ± 0.01", "unit": "% ID/g"}, {"measurement": "PSMA positive tumor uptake (in words)", "setting": "biodistributions of Tables 2, 3, 9, 10", "result": "demonstrated PSMA positive tumor uptake"}]}, {"smiles": "N=C(N)NCc1ccc(C(=O)NCCCCC(NC(=O)CCCCCCC(=O)NCCCC[C@H](NC(=O)N[C@@H](CCC(=O)O)C(=O)O)C(=O)O)C(=O)O)cc1[131I]", "note": "(stereo partly shown) [[^131I] labeled PSMA-904]", "values": [{"measurement": "Biodistribution: Lrg Int.", "setting": "1 H post-injection", "result": "0.50 ± 0.65", "unit": "% ID/g"}, {"measurement": "Biodistribution: Sm int.", "setting": "1 H post-injection", "result": "33.81 ± 6.36", "unit": "% ID/g"}, {"measurement": "Biodistribution: bladder", "setting": "1 H post-injection", "result": "0.71 ± 0.23", "unit": "% ID/g"}, {"measurement": "Biodistribution: blood", "setting": "1 H post-injection", "result": "0.46 ± 0.17", "unit": "% ID/g"}, {"measurement": "Biodistribution: heart", "setting": "1 H post-injection", "result": "0.46 ± 0.18", "unit": "% ID/g"}, {"measurement": "Biodistribution: kidney", "setting": "1 H post-injection", "result": "121 ± 23.8", "unit": "% ID/g"}, {"measurement": "Biodistribution: liver", "setting": "1 H post-injection", "result": "5.16 ± 3.81", "unit": "% ID/g"}, {"measurement": "Biodistribution: lung", "setting": "1 H post-injection", "result": "1.39 ± 0.36", "unit": "% ID/g"}, {"measurement": "Biodistribution: muscle", "setting": "1 H post-injection", "result": "0.31 ± 0.14", "unit": "% ID/g"}, {"measurement": "Biodistribution: spleen", "setting": "1 H post-injection", "result": "9.83 ± 3.28", "unit": "% ID/g"}, {"measurement": "Biodistribution: stomach", "setting": "1 H post-injection", "result": "0.73 ± 0.26", "unit": "% ID/g"}, {"measurement": "Biodistribution: thyroid", "setting": "1 H post-injection", "result": "0.11 ± 0.13", "unit": "% ID/g"}, {"measurement": "Biodistribution: Lrg Int.", "setting": "2 H post-injection", "result": "21.3 ± 15.9", "unit": "% ID/g"}, {"measurement": "Biodistribution: Sm int.", "setting": "2 H post-injection", "result": "14.2 ± 12.0", "unit": "% ID/g"}, {"measurement": "Biodistribution: bladder", "setting": "2 H post-injection", "result": "0.64 ± 0.25", "unit": "% ID/g"}, {"measurement": "Biodistribution: blood", "setting": "2 H post-injection", "result": "0.18 ± 0.07", "unit": "% ID/g"}, {"measurement": "Biodistribution: heart", "setting": "2 H post-injection", "result": "0.27 ± 0.14", "unit": "% ID/g"}, {"measurement": "Biodistribution: kidney", "setting": "2 H post-injection", "result": "110 ± 37.2", "unit": "% ID/g"}, {"measurement": "Biodistribution: liver", "setting": "2 H post-injection", "result": "3.48 ± 2.35", "unit": "% ID/g"}, {"measurement": "Biodistribution: lung", "setting": "2 H post-injection", "result": "0.81 ± 0.37", "unit": "% ID/g"}, {"measurement": "Biodistribution: muscle", "setting": "2 H post-injection", "result": "0.13 ± 0.03", "unit": "% ID/g"}, {"measurement": "Biodistribution: spleen", "setting": "2 H post-injection", "result": "3.41 ± 2.01", "unit": "% ID/g"}, {"measurement": "Biodistribution: stomach", "setting": "2 H post-injection", "result": "1.03 ± 0.62", "unit": "% ID/g"}, {"measurement": "Biodistribution: thyroid", "setting": "2 H post-injection", "result": "0.31 ± 0.23", "unit": "% ID/g"}, {"measurement": "Biodistribution: Lrg Int.", "setting": "21 H post-injection", "result": "14.5 ± 8.08", "unit": "% ID/g"}, {"measurement": "Biodistribution: Sm int.", "setting": "21 H post-injection", "result": "0.87 ± 0.92", "unit": "% ID/g"}, {"measurement": "Biodistribution: bladder", "setting": "21 H post-injection", "result": "0.07 ± 0.09", "unit": "% ID/g"}, {"measurement": "Biodistribution: blood", "setting": "21 H post-injection", "result": "0.02 ± 0.01", "unit": "% ID/g"}, {"measurement": "Biodistribution: heart", "setting": "21 H post-injection", "result": "0.02 ± 0.01", "unit": "% ID/g"}, {"measurement": "Biodistribution: kidney", "setting": "21 H post-injection", "result": "3.03 ± 2.96", "unit": "% ID/g"}, {"measurement": "Biodistribution: liver", "setting": "21 H post-injection", "result": "0.24 ± 0.39", "unit": "% ID/g"}, {"measurement": "Biodistribution: lung", "setting": "21 H post-injection", "result": "0.03 ± 0.01", "unit": "% ID/g"}, {"measurement": "Biodistribution: muscle", "setting": "21 H post-injection", "result": "0.03 ± 0.02", "unit": "% ID/g"}, {"measurement": "Biodistribution: spleen", "setting": "21 H post-injection", "result": "0.16 ± 0.07", "unit": "% ID/g"}, {"measurement": "Biodistribution: stomach", "setting": "21 H post-injection", "result": "1.98 ± 3.10", "unit": "% ID/g"}, {"measurement": "Biodistribution: thyroid", "setting": "21 H post-injection", "result": "0.42 ± 0.35", "unit": "% ID/g"}, {"measurement": "Biodistribution: PC-3 PiP", "setting": "1 H post-injection", "result": "27.6 ± 7.59", "unit": "% ID/g"}, {"measurement": "Biodistribution: PC-3 PiP", "setting": "2 H post-injection", "result": "24.7 ± 9.77", "unit": "% ID/g"}, {"measurement": "Biodistribution: PC-3 PiP", "setting": "21 H post-injection", "result": "19.2 ± 7.28", "unit": "% ID/g"}, {"measurement": "Biodistribution: PC-3 flu", "setting": "1 H post-injection", "result": "0.49 ± 0.23", "unit": "% ID/g"}, {"measurement": "Biodistribution: PC-3 flu", "setting": "2 H post-injection", "result": "0.22 ± 0.06", "unit": "% ID/g"}, {"measurement": "Biodistribution: PC-3 flu", "setting": "21 H post-injection", "result": "0.02 ± 0.01", "unit": "% ID/g"}]}]}
